We go through 20 substances from the OligoGym collection.

“And” between values parts separate entries of the source, which are not always exact repeats. Identical values can stand only once. HELM strings list units from the 5' end as sugar, base in round brackets, then linkage (d deoxyribose, r ribose, m 2'-O-methyl, p phosphodiester). Strings are as the collection lists them, not checked against the first reports. ss, as = sense and antisense strand; [lna] = locked nucleic acid (LNA); [una] = unlocked nucleic acid; [hna] = hexitol nucleic acid; [fl2r] = 2'-fluoro
Further: test system not given here.

For this data set the following is noted: siRNA.
“RNA1{r(A)p.r(U)p.r(C)p.r(U)p.r(G)p.r(A)p.r(A)p.r(G)p.r(A)p.r(A)p.r(G)p.r(G)p.r(A)p.r(G)p.r(A)p.r(A)p.r(A)p.r(A)p.r(A)p.r(T)p.r(T)}|RNA2{[lna](T)p.r(U)p.r(U)p.r(U)p.r(U)p.r(C)p.r(U)p.r(C)p.r(C)p.r(U)p.r(U)p.r(C)p.r(U)p.r(U)p.r(C)p.r(A)p.r(G)p.r(A)p.r(U)p.[lna](T)p.[lna](T)}$$$RNA1{StrandType:ss}|RNA2{StrandType:as}$” yielded a target mRNA knockdown of 22%.
As for “RNA1{r(G)p.r(A)p.r(C)p.r(G)p.r(U)p.r(A)p.r(A)p.r(A)p.r(C)p.r(G)p.r(G)p.r(C)p.r(C)p.r(A)p.r(C)p.r(A)p.r(A)p.r(G)p.r(U)p.[lna](T)p.[lna](C)}|RNA2{r(A)p.r(C)p.r(U)p.r(U)p.r(G)p.r(U)p.r(G)p.r(G)p.r(C)p.r(C)p.r(G)p.r(U)p.r(U)p.r(U)p.r(A)p.r(C)p.r(G)p.r(U)p.[lna](C)p.[lna](G)p.r(C)}$$$RNA1{StrandType:ss}|RNA2{StrandType:as}$”, the target mRNA knockdown came out at 86.7%.
As for “RNA1{m(U)p.r(U)p.m(U)p.r(G)p.m(A)p.r(U)p.m(C)p.r(A)p.m(G)p.r(C)p.m(G)p.r(G)p.m(A)p.r(G)p.m(A)p.r(C)p.m(U)p.r(C)p.m(G)p.r(T)p.r(T)}|RNA2{r(C)p.r(G)p.r(A)p.r(G)p.r(U)p.r(C)p.r(U)p.r(C)p.r(C)p.m(G)p.r(C)p.r(U)p.r(G)p.r(A)p.m(U)p.r(C)p.r(A)p.r(A)p.r(A)p.r(T)p.r(T)}$$$RNA1{StrandType:ss}|RNA2{StrandType:as}$”, the figure is 49%; as for “RNA1{r(C)p.[fl2r](U)p.r(G)p.r(A)p.r(C)p.r(C)p.r(G)p.r(G)p.r(A)p.r(A)p.r(G)p.r(C)p.r(G)p.r(C)p.r(U)p.r(U)p.r(A)p.r(A)p.r(A)p.r(T)p.r(T)}|RNA2{r(U)p.r(U)p.[fl2r](U)p.r(A)p.r(A)p.r(G)p.r(C)p.r(G)p.r(C)p.r(U)p.r(U)p.r(C)p.r(C)p.r(G)p.r(G)p.r(U)p.r(C)p.r(A)p.r(G)p.r(T)p.r(T)}$$$RNA1{StrandType:ss}|RNA2{StrandType:as}$”, 87%; as for “RNA1{[una](A)p.r(C)p.r(A)p.r(G)p.r(A)p.r(G)p.r(U)p.r(C)p.r(C)p.r(C)p.r(U)p.r(C)p.r(A)p.r(A)p.r(A)p.r(C)p.r(A)p.r(G)p.r(A)p.[una](U)p.[una](U)}|RNA2{r(U)p.r(C)p.r(U)p.r(G)p.r(U)p.r(U)p.r(U)p.r(G)p.r(A)p.r(G)p.r(G)p.r(G)p.r(A)p.r(C)p.r(U)p.r(C)p.r(U)p.r(G)p.r(U)p.[una](U)p.[una](U)}$$$RNA1{StrandType:ss}|RNA2{StrandType:as}$”, 94% and 92% and 91%.
As for “RNA1{r(G)p.r(A)p.r(A)p.r(A)p.r(A)p.r(C)p.r(G)p.r(C)p.r(U)p.r(U)p.r(G)p.r(U)p.r(A)p.r(A)p.r(A)p.r(G)p.r(C)p.r(C)p.r(G)p.r(T)p.r(T)}|RNA2{r(C)p.r(G)p.r(G)p.r(C)p.r(U)p.r(U)p.m(U)p.r(A)p.r(C)p.r(A)p.r(A)p.r(G)p.r(C)p.r(G)p.r(U)p.r(U)p.r(U)p.r(U)p.r(C)p.r(T)p.r(T)}$$$RNA1{StrandType:ss}|RNA2{StrandType:as}$”, the figure is 56%; as for “RNA1{r(A)p.r(G)p.r(U)p.[fl2r](U)p.r(A)p.r(A)p.r(C)p.r(C)p.r(C)p.r(G)p.r(G)p.r(G)p.r(A)p.r(C)p.r(U)p.[fl2r](U)p.r(G)p.r(G)p.r(A)p.r(T)p.r(T)}|RNA2{r(U)p.r(C)p.[fl2r](C)p.r(A)p.r(A)p.r(G)p.r(U)p.r(C)p.r(C)p.r(C)p.r(G)p.r(G)p.r(G)p.r(U)p.[fl2r](U)p.r(A)p.r(A)p.r(C)p.r(U)p.r(T)p.r(T)}$$$RNA1{StrandType:ss}|RNA2{StrandType:as}$”, 85% and 86%.
Turning to “RNA1{r(G)p.r(A)p.r(A)p.r(G)p.r(A)p.r(G)p.r(C)p.r(C)p.m(U)p.m(A)p.m(C)p.r(A)p.m(C)p.r(A)p.r(A)p.r(C)p.r(C)p.r(C)p.r(U)p.r(T)p.r(T)}|RNA2{r(A)p.r(G)p.r(G)p.r(G)p.r(U)p.m(U)p.r(G)p.m(U)p.r(G)p.m(U)p.r(A)p.r(G)p.r(G)p.r(C)p.r(U)p.r(C)p.r(U)p.r(U)p.r(C)p.r(T)p.r(T)}$$$RNA1{StrandType:ss}|RNA2{StrandType:as}$”, the target mRNA knockdown came out at 74%.
“RNA1{r(G)p.r(G)p.r(A)p.r(C)p.r(A)p.r(U)p.r(U)p.r(C)p.r(A)p.r(G)p.r(A)p.r(A)p.r(C)p.r(A)p.r(A)p.r(G)p.r(A)p.r(A)p.r(A)p.[una](U)p.[una](U)}|RNA2{r(U)p.r(U)p.[una](U)p.r(C)p.r(U)p.r(U)p.r(G)p.r(U)p.r(U)p.r(C)p.r(U)p.r(G)p.r(A)p.r(A)p.r(U)p.r(G)p.r(U)p.r(C)p.r(C)p.[una](U)p.[una](U)}$$$RNA1{StrandType:ss}|RNA2{StrandType:as}$”: the target mRNA knockdown is 0%.
In the case of “RNA1{r(A)p.r(A)p.r(G)p.r(G)p.r(A)p.r(A)p.r(C)p.r(G)p.r(G)p.r(G)p.r(G)p.r(A)p.r(C)p.r(A)p.r(C)p.r(U)p.r(U)p.r(A)p.r(C)p.r(T)p.r(T)}|RNA2{r(G)p.m(U)p.r(A)p.r(A)p.r(G)p.r(U)p.r(G)p.r(U)p.r(C)p.r(C)p.r(C)p.r(C)p.r(G)p.r(U)p.r(U)p.r(C)p.r(C)p.r(U)p.r(U)p.r(T)p.r(T)}$$$RNA1{StrandType:ss}|RNA2{StrandType:as}$” it was 38%; in that of “RNA1{r(C)p.[fl2r](U)p.r(A)p.r(G)p.r(A)p.r(G)p.r(G)p.r(A)p.r(U)p.r(C)p.r(U)p.[fl2r](U)p.r(G)p.r(A)p.r(A)p.r(G)p.r(A)p.r(C)p.r(C)p.r(T)p.r(T)}|RNA2{r(G)p.r(G)p.r(U)p.r(C)p.r(U)p.r(U)p.[fl2r](C)p.r(A)p.r(A)p.r(G)p.r(A)p.r(U)p.r(C)p.r(C)p.r(U)p.r(C)p.[fl2r](U)p.r(A)p.r(G)p.r(T)p.r(T)}$$$RNA1{StrandType:ss}|RNA2{StrandType:as}$”, 67% and 91%; in that of “RNA1{r(G)p.r(C)p.r(C)p.r(U)p.r(C)p.r(U)p.r(C)p.r(U)p.r(A)p.r(U)p.r(C)p.r(C)p.r(U)p.r(U)p.r(A)p.r(G)p.r(C)p.r(U)p.r(U)p.r(T)p.r(T)}|RNA2{r(A)p.r(A)p.r(G)p.r(C)p.[fl2r](U)p.r(A)p.r(A)p.r(G)p.r(G)p.r(A)p.[fl2r](U)p.r(A)p.r(G)p.r(A)p.r(G)p.r(A)p.r(G)p.r(G)p.r(C)p.r(T)p.r(T)}$$$RNA1{StrandType:ss}|RNA2{StrandType:as}$”, 48%.
As for “RNA1{r(G)p.r(A)p.r(C)p.r(G)p.[hna](U)p.r(A)p.r(A)p.[hna](A)p.r(C)p.r(G)p.[hna](G)p.r(C)p.r(C)p.[hna](A)p.r(C)p.r(A)p.r(A)p.r(G)p.[hna](U)p.r(U)p.d(T)}|RNA2{r(A)p.r(C)p.[lna](T)p.r(U)p.r(G)p.[lna](T)p.r(G)p.r(G)p.r(C)p.r(C)p.r(G)p.r(U)p.r(U)p.[lna](T)p.r(A)p.r(C)p.r(G)p.[lna](T)p.r(C)p.[lna](G)p.[lna](C)}$$$RNA1{StrandType:ss}|RNA2{StrandType:as}$”, the figure is 7.9%.
“RNA1{r(A)p.r(G)p.r(A)p.r(C)p.[fl2r](U)p.r(A)p.r(A)p.r(G)p.r(C)p.r(C)p.r(C)p.r(A)p.r(A)p.r(A)p.r(A)p.r(G)p.r(G)p.r(G)p.r(C)p.r(T)p.r(T)}|RNA2{r(G)p.r(C)p.r(C)p.r(C)p.r(U)p.r(U)p.r(U)p.r(U)p.r(G)p.r(G)p.r(G)p.r(C)p.r(U)p.[fl2r](U)p.r(A)p.r(G)p.r(U)p.r(C)p.r(U)p.r(T)p.r(T)}$$$RNA1{StrandType:ss}|RNA2{StrandType:as}$”: the target mRNA knockdown was 47%.
With “RNA1{r(A)p.r(G)p.r(G)p.r(A)p.r(C)p.r(G)p.r(G)p.r(U)p.r(A)p.r(C)p.r(U)p.r(U)p.r(U)p.r(C)p.r(G)p.r(A)p.r(A)p.r(A)p.r(G)p.r(T)p.r(T)}|RNA2{r(C)p.r(U)p.r(U)p.r(U)p.r(C)p.r(G)p.r(A)p.r(A)p.r(A)p.r(G)p.r(U)p.m(A)p.r(C)p.r(C)p.r(G)p.r(U)p.r(C)p.r(C)p.r(U)p.r(T)p.r(T)}$$$RNA1{StrandType:ss}|RNA2{StrandType:as}$”, the target mRNA knockdown stood at 46%.
In the case of “RNA1{r(G)p.r(C)p.r(U)p.r(U)p.r(U)p.r(A)p.r(A)p.r(G)p.r(G)p.r(A)p.r(A)p.r(C)p.r(U)p.r(G)p.r(G)p.r(A)p.r(A)p.r(G)p.r(G)p.r(T)p.r(T)}|RNA2{r(C)p.r(C)p.r(U)p.r(U)p.r(C)p.r(C)p.r(A)p.r(G)p.r(U)p.r(U)p.r(C)p.r(C)p.r(U)p.m(U)p.r(A)p.r(A)p.r(A)p.r(G)p.r(C)p.r(T)p.r(T)}$$$RNA1{StrandType:ss}|RNA2{StrandType:as}$” it was 37%; in that of “RNA1{r(A)p.r(A)p.r(C)p.r(C)p.r(C)p.r(A)p.r(C)p.r(C)p.r(A)p.r(C)p.r(A)p.r(G)p.r(C)p.r(U)p.r(A)p.r(G)p.r(A)p.r(A)p.r(C)p.r(U)p.r(U)}|RNA2{r(A)p.r(A)p.r(G)p.[fl2r](U)p.[fl2r](U)p.r(C)p.[fl2r](U)p.r(A)p.r(G)p.r(C)p.r(U)p.r(G)p.[fl2r](U)p.r(G)p.r(G)p.[fl2r](U)p.r(G)p.r(G)p.r(G)p.[fl2r](U)p.[fl2r](U)}$$$RNA1{StrandType:ss}|RNA2{StrandType:as}$”, 14%; in that of “RNA1{m(C)p.r(G)p.m(A)p.r(G)p.m(U)p.r(G)p.m(U)p.r(C)p.m(U)p.r(A)p.m(A)p.r(C)p.m(G)p.r(G)p.m(G)p.r(A)p.m(G)p.r(C)p.m(C)p.r(T)p.r(T)}|RNA2{r(G)p.r(G)p.r(C)p.r(U)p.r(C)p.r(C)p.r(C)p.r(G)p.r(U)p.r(U)p.r(A)p.r(G)p.r(A)p.r(C)p.r(A)p.r(C)p.r(U)p.r(C)p.r(G)p.r(T)p.r(T)}$$$RNA1{StrandType:ss}|RNA2{StrandType:as}$”, 25%.
Consider “RNA1{r(A)p.r(C)p.r(C)p.r(U)p.r(U)p.r(U)p.r(C)p.m(C)p.r(A)p.r(C)p.r(U)p.r(U)p.r(C)p.m(U)p.r(A)p.r(A)p.r(G)p.r(C)p.r(C)p.r(T)p.r(T)}|RNA2{r(G)p.r(G)p.r(C)p.r(U)p.m(U)p.r(A)p.r(G)p.r(A)p.r(A)p.r(G)p.m(U)p.r(G)p.r(G)p.r(A)p.r(A)p.r(A)p.r(G)p.r(G)p.r(U)p.r(T)p.r(T)}$$$RNA1{StrandType:ss}|RNA2{StrandType:as}$”, for which the target mRNA knockdown was found to be 75%.
“RNA1{r(A)p.r(C)p.r(C)p.r(G)p.r(A)p.r(C)p.r(G)p.r(A)p.r(U)p.r(U)p.r(C)p.r(U)p.r(U)p.r(C)p.m(U)p.r(A)p.r(C)p.r(U)p.r(C)p.r(T)p.r(T)}|RNA2{r(G)p.r(A)p.r(G)p.m(U)p.r(A)p.r(G)p.r(A)p.r(A)p.r(G)p.m(A)p.m(A)p.r(U)p.r(C)p.r(G)p.r(U)p.r(C)p.r(G)p.r(G)p.r(U)p.r(T)p.r(T)}$$$RNA1{StrandType:ss}|RNA2{StrandType:as}$” registered a target mRNA knockdown of 67%.
